Assay results taken from US11219602B2 (VECTURA LIMITED, priority 2017, dated 2022).
Values joined by “and” are separate entries in the source; they are usually repeats but may differ in a detail not shown here. Equal values may be shown once.

Test: Particle size analysis (wet analysis), Malvern Mastersizer 3000
Format: physicochemical
Conditions: starting material before micronisation
Description: The pump speed was set to 3000 rpm. […] The dispersed particles were added to the dispersion unit to reach an obscuration of 5-15%. […] Six replicates were performed per measurement.

[1] = listed as unmicronised glycopyrrolate

Compound	D10	D50	D90	D10 [1]	D50 [1]	D90 [1]
C[N+]1(C)CCC(OC(=O)C(O)(c2ccccc2)C2CCCC2)C1 (stereo not drawn) [Unmicronised glycopyrrolate, glycopyrrolate]	2.89 μm	16.0 μm	49.0 μm	1.09 μm	2.90 μm	10.4 μm
magnesium stearate	2.8 μm and 2.06 μm	8.8 μm and 6.57 μm	27.4 μm and 19.9 μm	–	–	–
